According to patent US5371077A, “Side chain derivatized 15-oxygenated sterols, methods of using them and a process for preparing them” (William Marsh Rice University, priority 1992, dated 1994):

How the values were obtained:
HMG-CoA reductase = experiment: Effects of sterols on HMG-CoA reductase activity in CHO-K1 cells; format: cell-based; conditions: 4 hours
Description: Effects of side chain derivatized 15-oxygenated sterols on HMG-CoA reductase activity in CHO-K1 cells
The effects of the sterols on HMG-CoA reductase activity were determined on CHO-K1 cells. The cells were obtained from the American Type Culture Collection (Rockville, Md.). (3RS)-[3-^14 C]HMG-CoA (56 mCi per mmol) and (3RS)-[2-^3 H]mevalonolactone (176 mCi per mmol) were purchased from Amersham Corporation (Arlington Heights, Ill.). Lux tissue culture plasticware was from Miles Scientific (Elkhart, Ind.). Trypsin was obtained from Gibco Laboratories (Grand Island, N.Y.) and Ham's F12 medium, Proc. Natl. Acad. Sci. U.S.A., 53, 288-293 (1965), and phosphate buffered saline (PBS; KCl, 2.7 mM; KH2 PO4, 1.2 mM; NaCl, 137 mM; and Na2 HPO4, 8.1 mM) were obtained from Irvine Scientific (Irvine, Calif.). Fetal calf serum was purchased from Whittaker M.A. Bioproducts (Elkhart, Ind.).
For cell culture experiments, the sterols and C24 acid were added as ethanolic solutions to Ham's F12 medium supplemented with 5% delipidated fetal calf serum (lipid-deficient medium) and allowed to equilibrate for at least 6 hours at room temperature prior to storage at 4° C. Protein in detergent-solubilized extracts of cultured cells was assayed by the Peterson modification, Anal. Biochem., 83, 346-356, of the method of Lowry et al., J. Biol. Chem, 193, 265-275.
The CHO-K1 cells were maintained in Ham's F12 medium supplemented with 5% fetal calf serum (lipid-rich medium) in a humidified atmosphere of 5% CO2 -95% air at 37° C. Each experiment was initiated by inoculating […] cells into 100-mm dishes containing the lipid-rich medium (10 ml), followed by incubating for 48 hours. The medium was aspirated and, after rinsing the plates with PBS (10 ml), the cells were incubated for 18 hours in lipid-deficient media (10 ml). The cells were then incubated with fresh lipid-deficient media (10 ml) containing various concentrations of the 15-oxygenated sterols (from 0.0 μM to 2.5 μM) for 4 hours. Cells were harvested by scraping, and detergent-solubilized cell preparations were obtained for assay of HMG-CoA reductase activity using the method of Brown, Dana and Goldstein, J. Biol. Chem, 249, 789-796. Replicate assays (n=3) were carried out as described by Pinkerton et al., J. Biol. Chem, 257, 1929-1936, except that the specific activity of (3RS)-[3-^14 C]HMG-CoA was 20,000 dpm per nmol.

[1] = Effects of dietary administration of F7-15-ketosterol to rats: serum sterols; format: in vivo, rats (Sprague-Dawley, male); conditions: rat
From the text: Effects of dietary administration of side chain derivatized 15-oxygenated sterols to rats
Male rats (100-140 g) of the Sprague-Dawley strain were obtained from Harlan Sprague-Dawley (Houston, Tex.) and housed in pairs for 6 days on a light (6:00 AM-6:00 PM)--dark cycle and fed a ground basal diet (Purina Formulab 5008) and water ad libitum. The animals were then divided into groups of 8 animals each, such that the mean values of serum cholesterol and body weight were approximately the same. The animals were then housed individually and were provided diet and water ad libitum. Blood for serum sterol concentrations was obtained at ^~ 8:00 AM from tail vein on days 5 and 9.
The experiment involved administration of 3β-hydroxy-25,26,26,26,27,27,27-heptafluoro-5α-cholest-8(14)-en-15-one (F7 -15-ketosterol) in basal diet as utilized previously in Schroepfer et al., Blochem. Biophys. Res. Commun., 78, 1227-233 (1977). 3β-Hydroxy-25,26,26,26,27,27,27-heptafluoro-5α-cholest-8(14)-en-15-one was administered at levels of 0.025%, 0.05%, 0.075, and 0.10% (by weight) in basal diet. Control rats received basal diet containing no added sterol.
Serum cholesterol was measured by two methods. Day 0 levels were determined using a commercial assay kit ("Single Vial"; Boehringer Mannheim Diagnostics, catalog no. 236691). This methodology could not be applied to the determination of serum cholesterol in serum samples of rats treated with 3β-hydroxy-25,26,26,26,27,27,27-heptafluoro-5α-cholest-8(14)-en-15-one due to the presence of another sterol which also acted as a substrate for cholesterol oxidase. Accordingly, cholesterol levels in serum were determined by gas chromatography (GC). Routine capillary GC analyses of sterols in serum were made on a 0.1 μm Rtx 1701 column (15 m×0.25 mm ID; 14% cyanopropylphenyl, 86% methyl polysiloxane; Restek Corp., Bellefonte, Pa.). Stigmasterol was used as an internal standard. In addition, recovery of sterol after saponification and extraction was monitored through the use of an internal standard of [7(n)-^3 H]cholesteryl oleate. Routine saponification of sample (100 μl) involved treatment with 10% KOH in ethanol (500 μl) followed by extraction with hexane (3×1.5 ml). After evaporation to dryness under nitrogen, the samples were treated with BSTFA-pyridine (1:1, 200 μl) for 1 hour at room temperature under nitrogen. After evaporation to dryness under nitrogen, the silylated material was dissolved in hexane (500 μl) and aliquots (1 μl) were subjected to GC analysis.

| SMILES | HMG-CoA reductase activity (% of control activity) (HMG-CoA reductase; sterol concentration 0.1 μM) | HMG-CoA reductase activity (% of control activity) (HMG-CoA reductase; sterol concentration 0.25 μM) | HMG-CoA reductase activity (% of control activity) (HMG-CoA reductase; sterol concentration 0.5 μM) | HMG-CoA reductase activity (% of control activity) (HMG-CoA reductase; sterol concentration 1.0 μM) | HMG-CoA reductase activity (% of control activity) (HMG-CoA reductase; sterol concentration 2.5 μM) | Serum Sterols: Cholesterol ([1]; 0.025% in diet, day 5, control 2.60 ± 0.12) [mM] | Serum Sterols: Cholesterol ([1]; 0.025% in diet, day 9, control 2.62 ± 0.06) [mM] | Serum Sterols: Cholesterol ([1]; 0.050% in diet, day 5, control 2.60 ± 0.12) [mM] | Serum Sterols: Cholesterol ([1]; 0.050% in diet, day 9, control 2.62 ± 0.06) [mM] | Serum Sterols: Cholesterol ([1]; 0.075% in diet, day 5, control 2.60 ± 0.12) [mM] | Serum Sterols: Cholesterol ([1]; 0.075% in diet, day 9, control 2.62 ± 0.06) [mM] | Serum Sterols: Cholesterol ([1]; 0.100% in diet, day 5, control 2.60 ± 0.12) [mM] | Serum Sterols: Cholesterol ([1]; 0.100% in diet, day 9, control 2.62 ± 0.06) [mM] |
| --- | --- | --- | --- | --- | --- | --- | --- | --- | --- | --- | --- | --- | --- |
| C[C@H](CCC(=O)O)[C@H]1CC(=O)C2=C3CC[C@H]4C[C@@H](O)CC[C@]4(C)[C@H]3CC[C@@]21C [I, 3β-hydroxy-15-keto-5α-chol-8(14)-en-24-oic acid] | 88.5 % of control activity | 77.3 % of control activity | 69.9 % of control activity | 65.0 % of control activity | 45.6 % of control activity | – | – | – | – | – | – | – | – |
| CC(C)=CCC[C@@H](C)[C@H]1CC(=O)C2=C3CC[C@H]4C[C@@H](O)CC[C@]4(C)[C@H]3CC[C@@]21C [II, 3β-hydroxy-5α-cholesta-8(14),24-dien-15-one] | 60.5 % of control activity | 67.0 % of control activity | 51.1 % of control activity | 40.0 % of control activity | 35.2 % of control activity | – | – | – | – | – | – | – | – |
| C[C@H](CCCC(C)(C)O)[C@H]1CC(=O)C2=C3CC[C@H]4C[C@@H](O)CC[C@]4(C)[C@H]3CC[C@@]21C [III, 3β,25-dihydroxy-5α-cholest-8(14)-en-15-one] | 66.4 % of control activity | 56.2 % of control activity | 50.2 % of control activity | 34.8 % of control activity | 23.7 % of control activity | – | – | – | – | – | – | – | – |
| CC(C)C(O)CC[C@@H](C)[C@H]1CC(=O)C2=C3CC[C@H]4C[C@@H](O)CC[C@]4(C)[C@H]3CC[C@@]21C (stereo partly drawn) [IV, 3β,24-dihydroxy-5α-cholest-8(14)-en-15-one] | 63.4 % of control activity | 33.5 % of control activity | 32.2 % of control activity | 34.2 % of control activity | 21.5 % of control activity | – | – | – | – | – | – | – | – |
| C[C@H](CCCN(C)C)[C@H]1CC(=O)C2=C3CC[C@H]4C[C@@H](O)CC[C@]4(C)[C@H]3CC[C@@]21C [V, 3β-hydroxy-24-dimethylamino-5α-chol-8(14)-en-15-one] | 87.1 % of control activity | 85.4 % of control activity | 73.3 % of control activity | 53.5 % of control activity | 35.0 % of control activity | – | – | – | – | – | – | – | – |
| C[C@H](CCCC(F)(C(F)(F)F)C(F)(F)F)[C@H]1CC(=O)C2=C3CC[C@H]4C[C@@H](O)CC[C@]4(C)[C@H]3CC[C@@]21C [VI, 3β-hydroxy-25,26,26,26,27,27,27-heptafluoro-5α-cholest-8(14)-en-15-one] | 68.3 % of control activity | 49.1 % of control activity | 35.6 % of control activity | 29.0 % of control activity | 22.2 % of control activity | 2.02 ± 0.12 | 2.10 ± 0.10 | 2.06 ± 0.07 | 1.83 ± 0.07 | 1.76 ± 0.05 | 1.76 ± 0.12 | 1.97 ± 0.09 | 1.90 ± 0.10 |
